Source: patent US9029078B2, “Perfusion and/or preservation solution for organs” (Philadelphia College of Osteopathic Medicine, priority 2005, dated 2015)
“Also recorded” adds a separate entry of the source. Where no end group is shown, it is not given here.

Experiments:
rat aortic endothelium = assay: Measurement of NO release from rat aortic segments; details: for Increase in NO release above basal: basal 1.85±0.18; for Induced production of NO after treating the endothelium with L-NAME: L-NAME 400 μM
Description: FIG. 5. Measurement of NO release from rat aortic segments. […] All values are expressed as means± SEM. Numbers at bottom of bars are numbers of separate experiments per group. *p<0.05, **p<0.01, from basal values. FIG. 10. Measurement of NO release from rat aortic segments. […] All values are expressed as means± SEM. Numbers at bottom of bars are numbers of separate experiments per group. *p<0.05, **p<0.01, from basal values. FIG. 17. Measurement of NO release from rat aortic segments. […] All values are expressed as means± SEM. Numbers at bottom of bars are numbers of separate experiments per group. **p<0.01, from basal values. PMN adherence to coronary vascular endothelium was also evaluated within the assessment of total intravascular and infiltrated PMNs. […] NO release from rat aortic endothelium was measured to determine if PKC ζ peptide inhibitor provides cardioprotection by a mechanism involving increased endothelial NO release. […] The eNOS inhibitor, L-NAME, was used as another control in order to decrease basal release of NO to zero.

[1] = system: isolated perfused rat hearts (I/R+PMNs); assay: Isolated perfused rat heart, 20 min ischemia / 45 min reperfusion with PMNs: cardiac contractile function (LVDP, +dP/dtmax, LVEDP); details: for LVDP of initial baseline (initial depression): 15 min into reperfusion; for Protective effect on +dP/dt max in the presence of L-NAME (in words) / Protective effect on LVDP in the presence of L-NAME (in words): with L-NAME; for PMN-induced contractile dysfunction / decrease in +dP/dt max (in words): final +dP/dt max after reperfusion; for PMN-induced contractile dysfunction / decrease in +dP/dt max (in words) / PMN-induced contractile dysfunction / decrease in LVDP (in words): vs I/R+PMNs; for PMN-induced contractile dysfunction / decrease in LVDP (in words): final LVDP, 45 min post reperfusion
Protocol: (§1) Data were recorded every 5 min for 45 min post-reperfusion. After each experiment, the left ventricle was isolated, fixed in 4% paraformaldehyde and stored at 4° C. for later histological analysis.

fMLP-stimulated rat PMNs = assay: Superoxide release from fMLP-stimulated rat PMNs; type: cell-based; details: for Superoxide release (absorbance): fMLP-stimulated PMNs alone 0.13±0.01
Protocol: FIG. 11. Superoxide release from rat PMNs. Superoxide release was measured from 5×10^6 PMNs after formyl-methionyl-leucyl-phenylalanine (fMLP) (200 nM) stimulation. SOD (10 μg/ml) was employed as a positive control. The change in absorbance (Δ) was measured 90 sec after fMLP addition (peak response). […] All values are means± SEM. Numbers at bottom of bars are numbers of separate experiments per group.

PMA-stimulated rat PMNs = assay: Superoxide release from PMA-stimulated rat PMNs; type: cell-based; details: for Superoxide release vs PMA-stimulated rat PMNs (in words): 1 μM; for Superoxide release (absorbance): PMA-stimulated PMNs alone 0.49±0.03; for Superoxide release after PMA (15 nM) stimulation (in words): 360 sec after PMA
Protocol: (§2) FIG. 6. Superoxide release from rat PMNs. Superoxide release was measured from 5×10^6 PMNs after phorbol-12-myristate-13-acetate (PMA) (15 nM) stimulation. Superoxide dismutase (SOD) (10 μg/ml) was employed as a positive control. The change in absorbance (Δ) was measured 360 sec after PMA addition (peak response). […] All values are means± SEM. Numbers at bottom of bars show the numbers of separate experiments per group.
as §2, with “18.” for “6.”, “PMA” for “phorbol-12-myristate-13-acetate (PMA)”, “SOD” for “Superoxide dismutase (SOD)”
FIG. 22. Superoxide release from rat PMNs. Superoxide release was measured from 5×10^6 PMNs after PMA (15 nM) stimulation. The change in absorbance (Δ) was measured 360 sec after PMA addition (peak response). […] All values are means± SEM. Numbers at bottom of bars show the numbers of separate experiments per group.

[2] = system: PMN adherence to coronary vascular endothelium; assay: Histological assessment of intravascular PMNs adhering to the coronary vasculature; design: species or system rat
Protocol: FIG. 4b. Histological assessment of intravascular PMNs that adhered to the coronary vasculature in isolated perfused rat heart samples taken from 3 rats per group
and 10 areas per heart. […] Hatched boxes represent non-PMN perfused hearts and black boxes represent PMN-perfused hearts. All values are mean numbers of PMNs/mm^2 of heart area± SEM.
PMN adherence to coronary vascular endothelium was also evaluated within the assessment of total intravascular and infiltrated PMNs. […] NO release from rat aortic endothelium was measured to determine if PKC ζ peptide inhibitor provides cardioprotection by a mechanism involving increased endothelial NO release. […] The eNOS inhibitor, L-NAME, was used as another control in order to decrease basal release of NO to zero.

[3] = system: PMN infiltration into the myocardium of isolated perfused rat hearts; assay: Histological assessment of total intravascular and infiltrated PMNs in post-reperfusion cardiac tissue
Protocol: FIG. 4a. Histological assessment of total intravascular and infiltrated PMNs in isolated perfused rat heart samples taken from 3 rats per group and 10 areas per heart. […] Hatched boxes represent non-PMN perfused hearts and black boxes represent PMN-perfused hearts. **P<0.01, from I/R+PMNs.
as §1
The cardiac injury associated with I/R in this model was closely correlated with the substantial number of PMNs infiltrating the myocardium within the 45 min reperfusion period. During reperfusion, a significant number of PMNs transmigrated into the myocardium, increasing from less than 25 PMN/mm^2 in Sham I/R hearts to more than 180 PMN/mm^2 in I/R+PMN hearts at the end of the reperfusion period (FIG. 4a).

[4] = I/R+PMN hearts, 1 μM, 45 min post-reperfusion
[5] = I/R+PMN hearts, 5 μM, 45 min post-reperfusion
[6] = I/R+PMN hearts, 10 μM + L-NAME 50 μM, 45 min post-reperfusion
[7] = I/R+PMN hearts, 10 μM, 45 min post-reperfusion
[8] = I/R+PMN hearts, 2.5 μM, 45 min post-reperfusion
[9] = I/R+PMN hearts, 5 μM + L-NAME 50 μM, 45 min post-reperfusion

Row | Compound | LVDP of I/R+PMN group compared to treated I/R+PMN group (time course) ([1]; 10 μM, reperfusion 0 to 45 min) | +dP/dtmax recovered to, of initial baseline [1, 4] | LVDP recovered to, of initial baseline [1, 4] | +dP/dtmax recovered to, of initial baseline [1, 5] | LVDP recovered to, of initial baseline [1, 5] | LVDP of initial baseline (initial depression) ([1]; I/R+PMN hearts, 10 μM) | +dP/dtmax recovered to, of initial baseline [1, 7] | LVDP recovered to, of initial baseline [1, 7] | Protective effect on +dP/dt max in the presence of L-NAME (in words) ([1]; I/R+PMN hearts) | Protective effect on LVDP in the presence of L-NAME (in words) ([1]; I/R+PMN hearts) | PMN-induced contractile dysfunction / decrease in +dP/dt max (in words) [1] | PMN-induced contractile dysfunction / decrease in LVDP (in words) [1] | Endothelial NO release vs basal NO release (in words) (rat aortic endothelium) | Induced production of NO after treating the endothelium with L-NAME (rat aortic endothelium) | Superoxide release vs PMA-stimulated rat PMNs (in words) (PMA-stimulated rat PMNs) | Superoxide release after PMA (15 nM) stimulation (in words) (PMA-stimulated rat PMNs) | Total intravascular and infiltrated PMNs vs I/R+PMNs (in words) ([3]; I/R+PMN hearts) | further results
1 | CC(=O)OCC[N+](C)(C)C [Acetylcholine, reference compound] |  |  |  |  |  |  |  |  |  |  |  |  |  |  |  |  |  | Increase in NO release compared to basal NO release (rat aortic endothelium; 200 nM (positive control)): 67±4%; Increase in NO release above basal (rat aortic endothelium; 500 nM (positive control)): 3.75±0.58 pmoles NO/mg tissue
2 | PKC βII peptide inhibitor: peptide inhibitor of protein kinase C beta II; preferred sequence SEQ ID NO: 1, preferably myristoylated (SLNPEWNET; not fully specified; listed as Homo sapiens) | significant and sustained reduction | 53±6% | 57±4% | 63±7% | 69±7% | 61±10% | 79±10% | 82±9% | blocked | significantly blocked | attenuated | attenuated | significantly increased; also recorded: significantly more NO | completely inhibited |  |  |  | +dP/dtmax of initial baseline [1, 6]: 53±5%; LVDP of initial baseline [1, 6]: 56±2%; Increase in NO release above basal (rat aortic endothelium; 1 μM): 0.75±0.19 pmoles NO/mg tissue; Increase in NO release above basal (rat aortic endothelium; 2.5 μM): 1.91±0.44 pmoles NO/mg tissue; Increase in NO release above basal (rat aortic endothelium; 5 μM): 2.54±0.29 pmoles NO/mg tissue; Increase in NO release above basal (rat aortic endothelium; 10 μM): 3.49±0.62 pmoles NO/mg tissue; Inhibition of superoxide (in words) (fMLP-stimulated rat PMNs; 1 μM): no significant inhibition; Superoxide release (absorbance) (fMLP-stimulated rat PMNs; 5 μM): 0.05±0.009; Superoxide release (absorbance) (fMLP-stimulated rat PMNs; 10 μM): 0.02±0.004; Superoxide release (absorbance) (fMLP-stimulated rat PMNs; 20 μM): 0.02±0.007; Superoxide release after fMLP (200 nM) stimulation (in words) (fMLP-stimulated rat PMNs; 5, 10 and 20 μM, 90 sec after fMLP): significantly inhibited
3 | PKC δ peptide activator: peptide activator of protein kinase C delta; preferred sequence SEQ ID NO: 3, preferably myristoylated (MRAAEDPM; not fully specified; listed as Homo sapiens) | significant and sustained reduction | 51±5% | 60±13% | 67±7% | 80±9% | 58±8% | 79±5% | 83±3% |  |  | attenuated | attenuated |  |  | no significant inhibition | significantly inhibited | attenuated | LVEDP of I/R+PMN group compared to treated I/R+PMN group (time course) ([1]; 10 μM, reperfusion 0 to 45 min): significant and sustained elevation; Superoxide release (absorbance) (PMA-stimulated rat PMNs; 5 μM): 0.32±0.03; Superoxide release (absorbance) (PMA-stimulated rat PMNs; 10 μM): 0.32±0.02; PMNs adhering to the coronary vasculature vs I/R+PMN hearts (in words) [2]: attenuated
4 | PKC ζ peptide inhibitor: peptide inhibitor of protein kinase C zeta; preferred sequence SEQ ID NO: 2, preferably myristoylated; from Genemed Synthesis (SIYRRGARRWRKL; not fully specified; listed as Homo sapiens) |  | 46±6% | 57±10% | 76±5% | 84±4% |  |  |  | blocked | significantly blocked | attenuated | attenuated | significantly increased | completely inhibited | no difference | significantly inhibited | significantly attenuated | LVDP of I/R+PMN group compared to treated I/R+PMN group (time course) ([1]; 5 μM, reperfusion 0 to 45 min): significant and sustained reduction; +dP/dtmax recovered to, of initial baseline [1, 8]: 75±5%; LVDP recovered to, of initial baseline [1, 8]: 83±4%; +dP/dtmax recovered to, of initial baseline [1, 9]: 54±9%; LVDP recovered to, of initial baseline [1, 9]: 58±7%; Lowest effective dose ([1]; I/R+PMN hearts, LVDP and +dP/dtmax): 2.5 µM; NO release compared to basal NO release (rat aortic endothelium; 1 μM): not significantly different; Increase in NO release compared to basal NO release (rat aortic endothelium; 2.5 μM): 47±2%; Increase in NO release compared to basal NO release (rat aortic endothelium; 5 μM): 54±5%; NO release from endothelium removed (denuded) rat aortic segments (rat aortic endothelium; 5 μM, denuded segments): not different from L-NAME-treated segments; Increase in NO release compared to basal NO release (rat aortic endothelium; 15 μM): 91±15%; Inhibition of PMN superoxide release (PMA-stimulated rat PMNs; 15 μM): 82%; Inhibition of superoxide release (PMA-stimulated rat PMNs; 2.5-15 μM, PMA 15 nM): 33-82%; Reduction in adherent PMNs to the coronary endothelium (not significant, p<0.06) ([2]; I/R+PMN hearts, 5 μM): 43±10%; Infiltrated PMNs compared to 1 μM treated hearts ([3]; 2.5 and 5 μM treated hearts): significantly fewer infiltrated PMNs; Reduction in PMN infiltration into post-reperfused cardiac tissue ([3]; I/R+PMN hearts, 1 μM): 20±6%; Reduction in PMN infiltration into post-reperfused cardiac tissue ([3]; I/R+PMN hearts, 2.5 μM): 46±4%; Reduction in PMN infiltration into post-reperfused cardiac tissue ([3]; I/R+PMN hearts, 5 μM): 48±3%; Effect on PMN infiltration in the presence of L-NAME (in words) ([3]; I/R+PMN hearts, with L-NAME): blocked
